Reference: publication PMC10192158 (Cancer Chemotherapy and Pharmacology, 2023)
pIC50, pKd: −log10 of the molar value. “And” between values parts separate entries of the source, which are not always exact repeats. Identical values can stand only once. Like-named read-outs stand apart in the source and are kept apart here. One block for each compound: values may come before it.

Experiments:
VEGFR2 [1] = conditions: cited from earlier work
panel of 270 kinases [2] = assay: Selectivity across panel of 270 kinases (residual activity radar chart, kinome tree)
VEGFR2 [3] = target: T1, VEGFR2 (Homo sapiens, UniProt P35968); assay: Surface plasmon resonance (Biacore T200) binding of rivoceranib to biotinylated VEGFR2 cytoplasmic domain
T1 sequence (P35968 790-1356): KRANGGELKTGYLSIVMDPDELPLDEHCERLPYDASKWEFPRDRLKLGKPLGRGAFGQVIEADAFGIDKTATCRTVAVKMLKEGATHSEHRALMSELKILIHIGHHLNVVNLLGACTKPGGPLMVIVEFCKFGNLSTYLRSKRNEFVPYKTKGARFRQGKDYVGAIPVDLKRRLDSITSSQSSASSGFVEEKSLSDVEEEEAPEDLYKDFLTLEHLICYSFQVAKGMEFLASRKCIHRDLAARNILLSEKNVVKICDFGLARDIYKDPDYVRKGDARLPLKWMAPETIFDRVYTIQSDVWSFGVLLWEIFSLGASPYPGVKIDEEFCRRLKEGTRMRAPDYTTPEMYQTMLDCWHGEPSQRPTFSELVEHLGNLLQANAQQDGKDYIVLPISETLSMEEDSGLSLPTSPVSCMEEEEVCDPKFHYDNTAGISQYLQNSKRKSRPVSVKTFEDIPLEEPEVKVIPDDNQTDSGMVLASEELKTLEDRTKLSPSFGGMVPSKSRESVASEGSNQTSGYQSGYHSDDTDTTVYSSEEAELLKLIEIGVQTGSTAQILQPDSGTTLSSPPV

VEGFR2/KDR = target: T2, VEGFR2/KDR (Homo sapiens, UniProt P35968); assay: Kinase panel enzyme activity assay (MSA or IMAP), percent inhibition at fixed concentration; type: biochemical
T2 construct: cytoplasmic domain of VEGFR2, encompassing amino acid residue 790 to 1356 (C-terminus); purchased Carna Biosciences, Inc. (Kobe, Japan); host or cells: insect cells
T2 sequence (P35968 790-1356): as above
Method: (§1) Kinase assays were performed to evaluate inhibitor activity on VEGFR2 and other kinases using either mobility shift assays (MSA) or immobilized metal ion affinity particle (IMAP) assays at Carna Biosciences, Inc (Kobe, Japan). The panel of kinases assayed comprises all wild-type kinases available for profiling at Carna Biosciences, Inc. For VEGFR2, the same cytoplasmic domain was used as in the SPR binding assay.
(§2) Off-chip MSA was performed by preparing a 4 × substrate/ATP/metal solution using kit buffer (20 mM HEPES, 0.01% Triton X-100, 5 mM DTT, pH 7.5), and a 2 × kinase solution was prepared in assay buffer (20 mM HEPES, 0.01% TritonX-100, 1 mM DTT, pH 7.5). […] A 4 × compound solution and the 4 × substrate/ATP/metal solution, and 2 × kinase solution were mixed and incubated in a 384-well microplate at room temperature for 1 or 5 h, dependent on the kinase. Termination Buffer (QuickScout Screening Assist MSA; Carna Biosciences) was added to the well, and the reaction mixture was applied to the LabChip™ system (Perkin Elmer) to separate and quantitate the product and substrate peptide peaks. The kinase reaction was measured using the product ratio calculated from the peak heights of the product (P) and substrate (S) peptides: [P/(P + S)].
(§3) For the IMAP assays, a 4 × substrate/ATP/metal solution and 2 × kinase solution were prepared using assay buffer (20 mM HEPES, 0.01% Tween 20, 2 mM DTT, pH 7.4). ATP concentrations in the solution were within twofold of the affinity for ATP (KM,ATP) for each individual kinase. Then, the 4 × compound solution, 4 × substrate/ATP/metal solution, and 2 × kinase solution were mixed and incubated in a single well of a polystyrene 384-well black microplate. After incubating for 1 h at room temperature, IMAP-binding reagent (IMAP Screening Express kit; Molecular Devices) was added to the well and incubated for 30 min. The kinase reaction in each well was measured via fluorescence polarization at excitation of 485 nm and emission of 530 nm.
(§4) IC50 values were calculated by fitting a 4-parameter logistic curve to the percentage inhibition values at the tested concentrations.
(§5) To compare the selectivity of rivoceranib and the 10 reference inhibitors, we performed either IMAP assays or off-chip MSA to assess the residual kinase activity of a panel of 270 kinases in the presence of 160 nM or 1600 nM rivoceranib or 1000 nM of reference inhibitor. The 270 kinases represent a broad representation of the more than 500 kinases encoded by the human genome.

RET = target: T3, RET (Homo sapiens, UniProt P07949); assay: as above; type: biochemical
T3 construct: purchased Carna Biosciences, Inc. (Kobe, Japan)
T3 sequence (P07949 29-1114): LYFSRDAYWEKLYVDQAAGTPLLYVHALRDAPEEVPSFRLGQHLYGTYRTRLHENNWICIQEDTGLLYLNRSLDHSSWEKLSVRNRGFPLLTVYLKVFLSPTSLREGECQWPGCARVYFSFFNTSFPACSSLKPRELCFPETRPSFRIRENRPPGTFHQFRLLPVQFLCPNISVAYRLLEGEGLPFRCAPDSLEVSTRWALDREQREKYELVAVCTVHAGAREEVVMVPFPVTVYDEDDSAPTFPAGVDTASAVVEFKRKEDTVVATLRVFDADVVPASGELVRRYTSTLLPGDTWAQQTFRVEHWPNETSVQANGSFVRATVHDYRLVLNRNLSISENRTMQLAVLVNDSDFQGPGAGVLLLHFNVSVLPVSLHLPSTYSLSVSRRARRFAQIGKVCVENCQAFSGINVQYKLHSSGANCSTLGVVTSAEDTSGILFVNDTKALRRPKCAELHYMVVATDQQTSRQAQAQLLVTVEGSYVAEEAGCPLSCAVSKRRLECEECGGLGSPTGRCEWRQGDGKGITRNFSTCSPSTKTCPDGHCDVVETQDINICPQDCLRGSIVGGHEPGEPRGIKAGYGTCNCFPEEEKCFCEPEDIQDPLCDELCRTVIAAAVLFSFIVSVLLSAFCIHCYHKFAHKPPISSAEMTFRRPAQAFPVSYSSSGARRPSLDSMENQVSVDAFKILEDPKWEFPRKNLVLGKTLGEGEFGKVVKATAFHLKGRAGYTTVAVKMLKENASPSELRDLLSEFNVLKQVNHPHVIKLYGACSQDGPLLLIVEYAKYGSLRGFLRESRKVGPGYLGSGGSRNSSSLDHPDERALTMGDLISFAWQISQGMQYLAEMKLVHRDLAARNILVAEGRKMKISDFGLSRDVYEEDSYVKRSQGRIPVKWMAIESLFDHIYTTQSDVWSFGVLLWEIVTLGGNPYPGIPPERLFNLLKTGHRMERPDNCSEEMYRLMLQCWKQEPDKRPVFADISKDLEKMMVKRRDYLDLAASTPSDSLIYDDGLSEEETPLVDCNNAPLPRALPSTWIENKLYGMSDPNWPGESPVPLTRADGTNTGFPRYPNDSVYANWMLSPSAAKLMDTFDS
Method: as §1, §2, §3, §4, §5

VEGFR3/FLT4 = target: T4, VEGFR3/FLT4 (Homo sapiens, UniProt P35916); assay: as above; type: biochemical
T4 construct: purchased Carna Biosciences, Inc. (Kobe, Japan)
T4 sequence (P35916 25-1363): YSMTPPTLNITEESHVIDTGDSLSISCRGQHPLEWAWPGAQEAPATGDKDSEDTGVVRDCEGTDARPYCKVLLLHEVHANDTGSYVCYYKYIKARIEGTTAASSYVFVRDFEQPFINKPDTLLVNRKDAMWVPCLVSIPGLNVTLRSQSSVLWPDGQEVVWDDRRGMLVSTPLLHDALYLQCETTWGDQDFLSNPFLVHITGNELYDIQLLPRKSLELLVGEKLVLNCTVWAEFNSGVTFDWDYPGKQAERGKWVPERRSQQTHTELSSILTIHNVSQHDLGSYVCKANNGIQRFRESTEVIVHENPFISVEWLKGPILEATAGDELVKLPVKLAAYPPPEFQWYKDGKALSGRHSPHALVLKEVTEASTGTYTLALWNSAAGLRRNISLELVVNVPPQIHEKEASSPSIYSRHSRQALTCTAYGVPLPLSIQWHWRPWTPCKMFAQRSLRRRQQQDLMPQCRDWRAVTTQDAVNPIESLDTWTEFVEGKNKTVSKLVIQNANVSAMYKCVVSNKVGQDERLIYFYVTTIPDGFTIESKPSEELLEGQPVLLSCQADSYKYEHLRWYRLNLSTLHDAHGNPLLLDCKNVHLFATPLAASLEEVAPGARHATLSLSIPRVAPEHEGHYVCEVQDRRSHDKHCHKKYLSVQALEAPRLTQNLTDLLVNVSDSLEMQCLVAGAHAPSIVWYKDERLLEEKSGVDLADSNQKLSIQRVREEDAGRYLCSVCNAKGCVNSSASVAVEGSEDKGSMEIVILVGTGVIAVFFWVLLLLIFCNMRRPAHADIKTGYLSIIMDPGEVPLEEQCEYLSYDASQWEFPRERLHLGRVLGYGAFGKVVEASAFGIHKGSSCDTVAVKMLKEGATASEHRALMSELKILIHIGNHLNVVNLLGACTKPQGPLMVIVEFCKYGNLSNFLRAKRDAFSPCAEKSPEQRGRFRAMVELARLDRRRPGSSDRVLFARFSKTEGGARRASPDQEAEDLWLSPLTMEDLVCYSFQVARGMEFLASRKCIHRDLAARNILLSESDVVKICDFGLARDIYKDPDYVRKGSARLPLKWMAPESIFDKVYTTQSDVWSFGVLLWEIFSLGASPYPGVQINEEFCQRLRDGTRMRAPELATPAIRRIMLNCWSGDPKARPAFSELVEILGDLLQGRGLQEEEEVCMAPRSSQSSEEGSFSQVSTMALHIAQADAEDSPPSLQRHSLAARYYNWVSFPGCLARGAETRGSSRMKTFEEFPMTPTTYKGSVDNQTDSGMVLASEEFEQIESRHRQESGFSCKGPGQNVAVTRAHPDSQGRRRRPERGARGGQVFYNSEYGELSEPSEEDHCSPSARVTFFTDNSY
Method: as §1, §2, §3, §4, §5

KIT = target: T5, KIT (Homo sapiens, UniProt P10721); assay: as above; type: biochemical
T5 construct: purchased Carna Biosciences, Inc. (Kobe, Japan)
Method: as §1, §2, §3, §4, §5

VEGFR1/FLT1 = target: T6, VEGFR1/FLT1 (Homo sapiens, UniProt P17948); assay: as above; type: biochemical
T6 construct: purchased Carna Biosciences, Inc. (Kobe, Japan)
T6 sequence (P17948 27-1338): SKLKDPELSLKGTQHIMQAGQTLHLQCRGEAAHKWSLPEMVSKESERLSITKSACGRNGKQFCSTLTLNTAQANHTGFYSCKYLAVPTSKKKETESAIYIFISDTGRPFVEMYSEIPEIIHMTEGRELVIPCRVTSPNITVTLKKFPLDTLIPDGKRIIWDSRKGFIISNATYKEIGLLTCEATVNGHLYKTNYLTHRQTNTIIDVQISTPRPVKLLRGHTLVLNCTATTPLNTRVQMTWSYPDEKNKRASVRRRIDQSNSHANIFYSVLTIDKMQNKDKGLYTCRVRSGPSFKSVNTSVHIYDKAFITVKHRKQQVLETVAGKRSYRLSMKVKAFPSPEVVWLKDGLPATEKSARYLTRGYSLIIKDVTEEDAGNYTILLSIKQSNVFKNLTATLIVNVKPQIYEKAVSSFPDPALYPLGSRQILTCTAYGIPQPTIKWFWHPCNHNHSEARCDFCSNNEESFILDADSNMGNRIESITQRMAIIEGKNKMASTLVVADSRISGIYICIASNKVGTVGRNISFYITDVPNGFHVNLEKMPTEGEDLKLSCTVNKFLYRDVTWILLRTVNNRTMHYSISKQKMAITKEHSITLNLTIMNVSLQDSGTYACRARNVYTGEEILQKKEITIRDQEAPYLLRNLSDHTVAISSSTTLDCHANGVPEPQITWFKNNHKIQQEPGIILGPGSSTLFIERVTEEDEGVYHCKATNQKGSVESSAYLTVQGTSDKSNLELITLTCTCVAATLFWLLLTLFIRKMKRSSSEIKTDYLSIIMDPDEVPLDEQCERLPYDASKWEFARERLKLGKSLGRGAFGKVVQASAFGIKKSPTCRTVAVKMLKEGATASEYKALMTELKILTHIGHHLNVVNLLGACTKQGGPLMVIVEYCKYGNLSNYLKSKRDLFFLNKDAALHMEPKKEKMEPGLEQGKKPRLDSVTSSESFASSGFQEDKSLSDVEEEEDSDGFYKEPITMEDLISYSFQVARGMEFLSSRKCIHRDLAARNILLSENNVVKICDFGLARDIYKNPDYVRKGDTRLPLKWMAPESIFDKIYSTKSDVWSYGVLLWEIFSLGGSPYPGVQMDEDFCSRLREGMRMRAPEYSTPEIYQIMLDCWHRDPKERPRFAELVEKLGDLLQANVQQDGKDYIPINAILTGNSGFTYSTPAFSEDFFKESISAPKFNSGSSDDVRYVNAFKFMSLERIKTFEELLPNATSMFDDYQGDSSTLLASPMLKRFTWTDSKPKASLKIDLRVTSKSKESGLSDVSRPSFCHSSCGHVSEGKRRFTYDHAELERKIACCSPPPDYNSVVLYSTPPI
Method: as §1, §2, §3, §4, §5

PDGFRβ = target: T7, PDGFRβ (Homo sapiens, UniProt P09619); assay: as above; type: biochemical
T7 construct: purchased Carna Biosciences, Inc. (Kobe, Japan)
Method: as §1, §2, §3, §4, §5

VEGFR2 [4] = target: T1, VEGFR2; assay: VEGFR2 kinase activity, off-chip mobility shift assay (MSA), dose-response
panel of 270 kinases [5] = test system: panel of 270 kinases; parameters: method as in PMID 24651269, PMID 30381447; conditions: 1000 nM reference inhibitor, compared among all inhibitors profiled; cited from earlier work
[6] = 1000 nM reference inhibitor, panel of 270 kinases
[7] = SPR, individual replicates 1a, 1b, 2a, 2b

Structure (SMILES): COc1cc2nccc(Oc3ccc(NC(=O)NC4CC4)c(Cl)c3)c2cc1C(N)=O [lenvatinib]
- pIC50 (VEGFR2 [1]; read-out: Reported IC50 values (VEGFR2), published literature, ref Brody T., 2018): 8.40
- Number of kinases inhibited by 50% or more (panel of 270 kinases [2]; [6]): 31

Structure (SMILES): CNC(=O)c1cc(Oc2ccc(NC(=O)Nc3ccc(Cl)c(C(F)(F)F)c3)c(F)c2)ccn1 [regorafenib]
- pIC50 (VEGFR2 [1]; read-out: Reported IC50 values (VEGFR2), published literature, ref Wilhelm SM et al., Int J Cancer. 2011): 8.40

- pKd (VEGFR2 [3]; KD (binding affinity, KD = kd/ka), SPR, single-cycle kinetics, 22 °C, 1:1 model, based on four replicates): 8.68 and 8.70 and ~8.70
- pKd (VEGFR2 [3]; KD, SPR, individual replicates 1a, 1b, 2a, 2b): 8.51 and 8.74 and 9.00 and 8.48
- kd (VEGFR2 [3]; SPR, geometric average of four replicates): 0.000807 s⁻¹
- kon (VEGFR2 [3]; read-out: ka, SPR, geometric average of four replicates): 387000 M⁻¹ s⁻¹
- Percent inhibition (VEGFR2/KDR; rivoceranib 160 nM): 96.12%
- inhibition at […] (VEGFR2/KDR; rivoceranib 160 nM): 96.1%
- Percent inhibition (VEGFR2/KDR; rivoceranib 1600 nM): 100.79%
- inhibition at […] (VEGFR2/KDR; rivoceranib 1600 nM): 101%
- Percent inhibition (RET; rivoceranib 160 nM): 71.72%
- inhibition at […] (RET; rivoceranib 160 nM): 71.7%
- Percent inhibition (RET; rivoceranib 1600 nM): 97.89%
- inhibition at […] (RET; rivoceranib 1600 nM): 97.9%
- inhibition at […] (VEGFR3/FLT4; rivoceranib 160 nM): 92.9%
- Percent inhibition (VEGFR3/FLT4; rivoceranib 1600 nM): 99.33%
- inhibition at […] (VEGFR3/FLT4; rivoceranib 1600 nM): 99.3%
- inhibition at […] (KIT; rivoceranib 160 nM): 47.3%
- Percent inhibition (KIT; rivoceranib 1600 nM): 92.58%
- inhibition at […] (KIT; rivoceranib 1600 nM): 92.6%
- Percent inhibition (VEGFR1/FLT1; rivoceranib 160 nM): 93.27%
- inhibition at […] (VEGFR1/FLT1; rivoceranib 160 nM): 93.3%
- Percent inhibition (VEGFR1/FLT1; rivoceranib 1600 nM): 99.53%
- inhibition at […] (VEGFR1/FLT1; rivoceranib 1600 nM): 99.5%
- Percent inhibition (PDGFRβ; rivoceranib 160 nM): 62.11%
- inhibition at […] (PDGFRβ; rivoceranib 160 nM): 62.1%
- inhibition at […] (PDGFRβ; rivoceranib 1600 nM): 94.8%
- pIC50 (VEGFR2 [4]): 7.80
- Overall residual kinase activity across the panel of kinases (panel of 270 kinases [2]; 160 nM and 1600 nM rivoceranib, compared among all inhibitors profiled): the greatest residual kinase activity
Structure (SMILES): N#CC1(c2ccc(NC(=O)c3cccnc3NCc3ccncc3)cc2)CCCC1 [rivoceranib]
- ka (VEGFR2 [3]; [7]): 303000 M⁻¹ s⁻¹ and 253000 M⁻¹ s⁻¹ and 445000 M⁻¹ s⁻¹ and 659000 M⁻¹ s⁻¹
- kd (VEGFR2 [3]; [7]): 0.000775 s⁻¹ and 0.000557 s⁻¹ and 0.000445 s⁻¹ and 0.0022 s⁻¹
- pIC50 (VEGFR2 [1]; read-out: IC50 for VEGFR2 kinase inhibition in a previous study, ATP 10 µM): 9.00

Structure (SMILES): CCN(CC)CCNC(=O)c1c(C)[nH]c(/C=C2\C(=O)Nc3ccc(F)cc32)c1C [sunitinib]
- Number of additional kinases beyond VEGFR2 inhibited by > 50% (panel of 270 kinases [2]; [6]): 125
- Overall residual kinase activity across the panel of kinases (panel of 270 kinases [5]): the least residual kinase activity

Structure (SMILES): COc1cc2nccc(Oc3ccc(NC(=O)Nc4cc(C)on4)c(Cl)c3)c2cc1OC [tivozanib]
- Number of additional kinases beyond VEGFR2 inhibited by > 50% (panel of 270 kinases [2]; [6]): more than 70
